The text below walks through data of US20170050962A1, “IMIDAZO[1,2-A]PYRIDINES AS STIMULATORS OF SOLUBLE GUANYLATE CYCLASE FOR TREATING CARDIOVASCULAR DISEASES” (BAYER PHARMA AKTIENGESELLSCHAFT, priority 2014, published 2017).

This assay concerns recombinant guanylate cyclase reporter cell line. As to the kind of experiment: Effect on a recombinant guanylate cyclase reporter cell line. It is filed as cell-based. The settings on record: in some cases mean values for individual determinations. As to the method:
B-2. Effect on a Recombinant Guanylate Cyclase Reporter Cell Line
The cellular activity of the compounds according to the invention is determined using a recombinant guanylate cyclase reporter cell line, as described in F. Wunder et al., Anal. Biochem. 339, 104-112 (2005).
Representative MEC values (MEC=minimum effective concentration) for the compounds of the invention are shown in the table below (in some cases as mean values for individual determinations): […]

On to `Cc1cc(OCc2c(F)cccc2F)c2nc(C)c(C3=CC(=NO)CC(C)(C)N3)n2c1` (stereo in doubt) [Example 5, (4E)-6-{8-[(2,6-Difluorobenzyl)oxy]-2,6-dimethylimidazo[1,2-a]pyridin-3-yl}-N-hydroxy-2,2-dimethyl-2,3-dihydropyridine-4(1H)-imine], for which the “MEC (minimum effective concentration)” value amounted to 0.03 µM.

For `Cc1cc(OCc2c(F)cccc2F)c2nc(C)c(-c3ccc(=O)n(CC(C)(C)N)c3)n2c1` [Example 1, 1-(2-Amino-2-methylpropyl)-5-{8-[(2,6-difluorobenzyl)oxy]-2,6-dimethylimidazo[1,2-a]pyridin-3-yl}pyridin-2(1H)-one], the “MEC (minimum effective concentration)” value amounted to 1.0 µM. Then `Cc1cc(OCc2c(F)cccc2F)c2nc(C)c(-c3ccc(OCC(C)(C)N)nc3)n2c1` [Example 2, 1-[(5-{8-[(2,6-Difluorobenzyl)oxy]-2,6-dimethylimidazo[1,2-a]pyridin-3-yl}pyridin-2-yl)oxy]-2-methylpropan-2-amine], with 0.3 µM; and `Cc1cc(OCc2c(F)cccc2F)c2nc(C)c(-c3ccn(CC(C)(C)N)c(=O)c3)n2c1` [Example 3, 1-(2-Amino-2-methylpropyl)-4-{8-[(2,6-difluorobenzyl)oxy]-2,6-dimethylimidazo[1,2-a]pyridin-3-yl}pyridin-2(1H)-one], with 1.0 µM. Then `Cc1cc(OCc2c(F)cccc2F)c2nc(C)c(-c3ccnc(OCC(C)(C)N)c3)n2c1` [Example 4, 1-[(4-{8-[(2,6-Difluorobenzyl)oxy]-2,6-dimethylimidazo[1,2-a]pyridin-3-yl}pyridin-2-yl)oxy]-2-methylpropan-2-amine], with 0.03 µM; and `Cc1cc(OCc2c(F)cccc2F)c2nc(C)c(-c3nc(OCC(C)(C)N)n[nH]3)n2c1` [Example 6, 1-[(5-{8-[(2,6-Difluorobenzyl)oxy]-2,6-dimethylimidazo[1,2-a]pyridin-3-yl}-1H-1,2,4-triazol-3-yl)oxy]-2-methylpropan-2-amine], with 3.0 µM; and `Cc1cc(OCc2c(F)cccc2F)c2nc(C)c(-c3cc[nH]c(=O)c3)n2c1` [Example 8, 4-{8-[(2,6-Difluorobenzyl)oxy]-2,6-dimethylimidazo[1,2-a]pyridin-3-yl}pyridin-2(1H)-one], with 1.0 µM.
